# Data published in patent US4282375A, “Halogenated-naphthalenetriyltris(sulfonylimino)-aryl multicarboxylic acids and salts thereof” (priority 1979, dated 1981).
# Like-named read-outs stand apart in the source and are kept apart here.
# How the values were obtained:
# [1] = tested on: late components of human complement (C3-C9); assay: Test Code 035 (C3-C9 inhibitor), lysis of EAC 142; format: biochemical; details: serial twofold dilution assay; higher well number indicates higher activity
# From the text: (§1) An active inhibitor protects C2 from C1 and C4; (ii) Test Code 035 (C3-C9 inhibitor)--This test determines the ability of the late components of human complement (C3-C9) to lyse EAC 142 in the presence of approriate dilutions of the test compound. An active inhibitor protects EAC 142 from lysis by human C3-C9; (iii) Test Code 036 (C-Shunt inhibitor)--In this test human erythrocytes rendered fragile are lysed in autologous serum via the shunt pathway activated by cobra venom factor in the presence of appropriate dilutions of the test compound. Inhibition of the shunt pathway results in failure of lysis; (iv) Forssman Vasculitis Test--Here, the well known complement dependent lesion, Forssman vasculitis, is produced in guinea pigs by intradermal injection of rabbit anti-Forssman antiserum. […] Percent inhibition is calculated by comparison with simultaneous controls. […]
# shunt pathway = assay: Test Code 036 (C-Shunt inhibitor), lysis of fragile human erythrocytes in autologous serum, cobra venom factor activated; format: cell-based; details: serial twofold dilution assay; higher well number indicates higher activity
# From the text: as §1
# [2] = tested on: complement activity of serum; assay: Guinea Pig Intraperitoneal Test (GPIP), serum complement activity; format: in vivo; details: Cavia porcellus, ip, 200 mg./kg. i.p.
# From the text: An active inhibitor protects C2 from C1 and C4; (ii) Test Code 035 (C3-C9 inhibitor)--This test determines the ability of the late components of human complement (C3-C9) to lyse EAC 142 in the presence of approriate dilutions of the test compound. An active inhibitor protects EAC 142 from lysis by human C3-C9; (iii) Test Code 036 (C-Shunt inhibitor)--In this test human erythrocytes rendered fragile are lysed in autologous serum via the shunt pathway activated by cobra venom factor in the presence of appropriate dilutions of the test compound. Inhibition of the shunt pathway results in failure of lysis; (iv) Forssman Vasculitis Test--Here, the well known complement dependent lesion, Forssman vasculitis, is produced in guinea pigs by intradermal injection of rabbit anti-Forssman antiserum. The lesion is measured in terms of diameter, edema and hemorrhage and the extent to which a combined index of these is inhibited by prior intraperitoneal injection of the test compound at 200 mg./kg. is then reported, unless otherwise stated; (v) Forssman Shock Test--Lethal shock is produced in guinea pigs by an i.v. injection of anti-Forssman antiserum and the haromic mean death time of treated guinea pigs is compared with that of simultaneous controls; (vi) Complement Level Reduction Test--In this test, the above dosed guinea pigs, or others, are bled for serum and the complement level is determined in undiluted serum by the capillary tube method of U.S. Pat. No. 3,876,376 and compared to undosed control guinea pigs; (vii) Cap 50 Test--Here, appropriate amounts of the test compound are added to a pool of guinea pig serum in vitro, after which the undiluted serum capillary tube assay referred to above is run. The concentration of compound inhibiting 50% is reported; (viii) Guinea Pig Intraperitoneal Test (GPIP)--Guinea Pigs weighing about 300 g. are dosed intraperitoneally (i.p.) with 200 mg./kg. of the test compound dissolved in saline and adjusted to pH 7-8. […] Percent inhibition is calculated by comparison with simultaneous controls. […]
# activated human C1 = activated human C1 (Homo sapiens, UniProt P09871); assay: Test Code 026 (C1 inhibitor); format: biochemical; details: serial twofold dilution assay; higher well number indicates higher activity
# From the text: as §1
structure (smiles),measurement,setting,value
"O=C([O-])c1cc(NS(=O)(=O)c2cc(S(=O)(=O)Nc3cc(C(=O)[O-])c(C(=O)[O-])c(C(=O)[O-])c3)c3c(Cl)ccc(S(=O)(=O)Nc4cc(C(=O)[O-])c(C(=O)[O-])c(C(=O)[O-])c4)c3c2)cc(C(=O)[O-])c1C(=O)[O-].[Na+].[Na+].[Na+].[Na+].[Na+].[Na+].[Na+].[Na+].[Na+] [5,5',5""-[(8-chloro-1,3,5-naphthalenetriyl)tris(sulfonylimino)]-tri-1,2,3-benzenetricarboxylic acid, nonasodium salt]",C-Late 035 Wells,[1],+2 Wells
same,Shunt Inhibition 036 Wells,shunt pathway,+5 Wells
same,inhibition at 200 mg/kg,"[2]; 0.5 h, blood sample 30 minutes after injection, read-out: In Vivo Activity (Guinea Pig) % Inhibition Intraperitoneal, 30 minutes",-75%
same,inhibition at 200 mg/kg,"[2]; 1 h, blood sample 60 minutes after injection, read-out: In Vivo Activity (Guinea Pig) % Inhibition Intraperitoneal, 60 minutes",-69%
same,inhibition at 200 mg/kg,"[2]; 2 h, blood sample 120 minutes after injection, read-out: In Vivo Activity (Guinea Pig) % Inhibition Intraperitoneal, 120 minutes",75%
same,Cl 026 Wells,activated human C1,+7 Wells
